According to paper PMC5584945, “Evaluation of robenidine analog NCL195 as a novel broad-spectrum antibacterial agent” (PLoS ONE, 2017):
≈ marks a conversion by molar mass, not a printed value. Like-named read-outs stand apart in the source and are kept apart here.

Assays:
S. aureus = assay: MIC, broth micro-dilution (CLSI); format: cell-based, Staphylococcus aureus; settings: Staphylococcus aureus; for MIC: read-out: MIC
[1] = tested on: Enterococcus faecalis ATCC 29212; assay: MIC, broth micro-dilution (CLSI), control strain; format: cell-based
Description: MICs for NCL812 and its analogs (serial two-fold dilutions commencing at 128 μg/ml) were determined (in duplicate) in round bottom 96-well microtitre trays (Sarstedt 82.1582.001), using the broth micro-dilution method recommended by the Clinical and Laboratory Standards Institute (CLSI). […] MIC50, MIC90 and MIC range for NCL812, NCL195 and NCL219 were calculated against each S. pneumoniae, S. aureus or VRE isolate. To assess the potential activity of NCL195 against Gram-negative bacteria, MICs against Acinetobacter spp, E. coli, K. pneumoniae, P. aeruginosa, Proteus spp and Neisseria meningitidis were performed in the presence or absence of 0.08 mM-20 mM EDTA in a standard checkerboard assay.

[2] = tested on: vancomycin-resistant enterococci (VRE); assay: MIC, broth micro-dilution (CLSI); format: cell-based, enterococci (porcine isolates); settings: for MIC90 / MIC50 / MIC: Enterococcus, VRE
[3] = ATCC 29213 / MSSA, ATCC29213 MSSA (ST5), absence of FBS
[4] = IRISH 1 – HA-EMRSA (ST8), absence of FBS
[5] = IRISH 2 – HA-EMRSA (ST8), absence of FBS
[6] = MRSA / USA300, USA 300 - MRSA (ST8), absence of FBS
[7] = MRSA, AUS2-MRSA (ST239), absence of FBS
[8] = MRSA, AUS3-MRSA (ST239), absence of FBS
[9] = MRSA, BENGAL BAY PVL+ – CA-MRSA (ST772), absence of FBS
[10] = MRSA, Classic–HA-MRSA (ST250), absence of FBS
[11] = MRSA, NY JAPAN – HA MRSA (ST5), absence of FBS
[12] = MRSA, QLD PVL+ –CA-MRSA (ST93), absence of FBS
[13] = MRSA, ST398–CA-MRSA-V (ST398), absence of FBS
[14] = MRSA, WSPP – PVL neg CA MRSA (ST30), absence of FBS
[15] = S2 Table isolates, absence of FBS
[16] = TAIWAN PVL+ – CA-cMRSA (ST59), absence of FBS
[17] = UK 15 PVL+ – HA-EMRSA (ST22), absence of FBS
[18] = UK 15 – HA-EMRSA (ST22), absence of FBS
[19] = UK 16 – HA- EMRSA (ST36), absence of FBS
[20] = UK 17 – HA-EMRSA (ST247), absence of FBS
[21] = S3 Table isolates, absence of FBS

`CC1(C)S[C@@H]2[C@H](NC(=O)[C@H](N)c3ccccc3)C(=O)N2[C@H]1C(=O)O` [Ampicillin] showed an MIC90 (S. aureus; 23 isolates) of over 16 mg/L, an MIC (S. aureus; [3]) of 2 mg/L (≈ 5.72 µM) and an MIC (S. aureus; [4]) of over 16 mg/L. For the same molecule, the MIC (S. aureus; [5]) was over 16 mg/L, the MIC (S. aureus; [6]) was over 16 mg/L and the MIC (S. aureus; [7]) was over 16 mg/L. It also gave an MIC (S. aureus; [8]) of over 16 mg/L, an MIC (S. aureus; [9]) of 8 mg/L (≈ 22.9 µM) and an MIC (S. aureus; [10]) of over 16 mg/L. The MIC (S. aureus; [11]) was over 16 mg/L, the MIC (S. aureus; [12]) was over 16 mg/L and the MIC (S. aureus; [13]) was over 16 mg/L. It also gave an MIC (S. aureus; [14]) of over 16 mg/L, an MIC50 (S. aureus; [15]) of over 16 mg/L and an MIC90 (S. aureus; [15]) of over 16 mg/L. It also gave an MIC (S. aureus; [16]) of 8 mg/L (≈ 22.9 µM), an MIC (S. aureus; [17]) of 16 mg/L (≈ 45.8 µM) and an MIC (S. aureus; [18]) of over 16 mg/L. The MIC (S. aureus; [19]) was over 16 mg/L, the MIC (S. aureus; [20]) was over 16 mg/L and the MIC ([1]; ATCC29212, absence of FBS) was 2 mg/L. The MIC90 ([2]; 20 isolates) was 2 mg/L (≈ 5.72 µM), the MIC50 [2, 21] was 1 mg/L (≈ 2.86 µM) and the MIC90 [2, 21] was 2 mg/L (≈ 5.72 µM). For the same molecule, the MIC ([2]; VRE 1 (49 FR), absence of FBS) was 2 mg/L (≈ 5.72 µM), the MIC ([2]; VRE 2 (53 FR), absence of FBS) was 1 mg/L (≈ 2.86 µM) and the MIC ([2]; VRE 3 (55 FR), absence of FBS) was 1 mg/L (≈ 2.86 µM). It also gave an MIC ([2]; VRE 4 (57 FR), absence of FBS) of 1 mg/L (≈ 2.86 µM), an MIC ([2]; VRE5 (58 FR), absence of FBS) of 1 mg/L (≈ 2.86 µM) and an MIC ([2]; VRE 6 (59 FR), absence of FBS) of 2 mg/L (≈ 5.72 µM). It also gave an MIC ([2]; VRE 7 (270 G), absence of FBS) of 0.25 mg/L (≈ 0.715 µM), an MIC ([2]; VRE 8 (277 G), absence of FBS) of 2 mg/L (≈ 5.72 µM) and an MIC ([2]; VRE 9 (61 FR), absence of FBS) of 1 mg/L (≈ 2.86 µM). It also gave an MIC ([2]; VRE 10 (62 FR), absence of FBS) of 2 mg/L (≈ 5.72 µM), an MIC ([2]; VRE 11 (284 G), absence of FBS) of 2 mg/L (≈ 5.72 µM) and an MIC ([2]; VRE 12 (290 G), absence of FBS) of 1 mg/L (≈ 2.86 µM). For the same molecule, the MIC ([2]; VRE 13 (251 G), absence of FBS) was 1 mg/L (≈ 2.86 µM), the MIC ([2]; VRE 14 (252 G), absence of FBS) was 0.5 mg/L (≈ 1.43 µM) and the MIC ([2]; VRE 15 (63 FR), absence of FBS) was 1 mg/L (≈ 2.86 µM). For the same molecule, the MIC ([2]; VRE 16 (60 FR), absence of FBS) was 1 mg/L (≈ 2.86 µM), the MIC ([2]; VRE 17 (45 FR), absence of FBS) was 2 mg/L (≈ 5.72 µM) and the MIC ([2]; VRE 18 (69 W), absence of FBS) was 1 mg/L (≈ 2.86 µM). The MIC ([2]; VRE 19 (70 W), absence of FBS) was 1 mg/L (≈ 2.86 µM), the MIC ([2]; VRE 20 (78 W), absence of FBS) was 1 mg/L (≈ 2.86 µM) and the MIC range [2, 21] was 0.25 to 2 mg/L.
`CCCCCCCCCC(=O)N[C@@H](Cc1c[nH]c2ccccc12)C(=O)N[C@H](CC(N)=O)C(=O)N[C@@H](CC(=O)O)C(=O)N[C@@H]1C(=O)NCC(=O)N[C@@H](CCCN)C(=O)N[C@@H](CC(=O)O)C(=O)N[C@H](C)C(=O)N[C@@H](CC(=O)O)C(=O)NCC(=O)N[C@H](CO)C(=O)N[C@@H]([C@H](C)CC(=O)O)C(=O)N[C@@H](CC(=O)c2ccccc2N)C(=O)O[C@@H]1C` [Daptomycin, daptomycin] was tested, and the MIC90 (S. aureus; 23 isolates) was 0.5 mg/L (≈ 0.309 µM), the MIC (S. aureus; ATCC 12600 / MSSA, ATCC12600 [Xen29] (MSSA), 10% FBS) was 0.5 mg/L (≈ 0.309 µM) and the MIC (S. aureus; ATCC 12600 / MSSA, ATCC12600 [Xen29] (MSSA), absence of FBS) was 0.5 mg/L (≈ 0.309 µM). For the same molecule, the MIC (S. aureus; [3]) was 0.5 mg/L (≈ 0.309 µM), the MIC (S. aureus; ATCC 49775 / MSSA, ATCC 49775 (MSSA), absence of FBS) was 0.5 mg/L (≈ 0.309 µM) and the MIC (S. aureus; [4]) was 0.5 mg/L (≈ 0.309 µM). It also gave an MIC (S. aureus; [5]) of 0.5 mg/L (≈ 0.309 µM), an MIC (S. aureus; [6]) of 0.5 mg/L (≈ 0.309 µM) and an MIC (S. aureus; [7]) of 1 mg/L (≈ 0.617 µM). The MIC (S. aureus; [8]) was 0.5 mg/L (≈ 0.309 µM), the MIC (S. aureus; [9]) was 0.5 mg/L (≈ 0.309 µM) and the MIC (S. aureus; [10]) was 0.5 mg/L (≈ 0.309 µM). For the same molecule, the MIC (S. aureus; [11]) was 0.5 mg/L (≈ 0.309 µM), the MIC (S. aureus; [12]) was 0.25 mg/L (≈ 0.154 µM) and the MIC (S. aureus; [13]) was 0.5 mg/L (≈ 0.309 µM). It also gave an MIC (S. aureus; [14]) of 0.5 mg/L (≈ 0.309 µM), an MIC50 (S. aureus; [15]) of 0.5 mg/L (≈ 0.309 µM) and an MIC90 (S. aureus; [15]) of 0.5 mg/L (≈ 0.309 µM). It also gave an MIC (S. aureus; [16]) of 0.5 mg/L (≈ 0.309 µM), an MIC (S. aureus; [17]) of 0.5 mg/L (≈ 0.309 µM) and an MIC (S. aureus; [18]) of 0.5 mg/L (≈ 0.309 µM). It also gave an MIC (S. aureus; [19]) of 0.5 mg/L (≈ 0.309 µM), an MIC (S. aureus; [20]) of 0.5 mg/L (≈ 0.309 µM) and an MIC ([1]; ATCC29212, 10% FBS) of 2 mg/L. For the same molecule, the MIC ([1]; ATCC29212, absence of FBS) was 2 mg/L, the MIC90 ([2]; 20 isolates) was 2 mg/L (≈ 1.23 µM) and the MIC50 [2, 21] was 1 mg/L (≈ 0.617 µM). For the same molecule, the MIC90 [2, 21] was 2 mg/L (≈ 1.23 µM), the MIC ([2]; VRE 1 (49 FR), absence of FBS) was 1 mg/L (≈ 0.617 µM) and the MIC ([2]; VRE 2 (53 FR), absence of FBS) was 2 mg/L (≈ 1.23 µM). The MIC ([2]; VRE 3 (55 FR), absence of FBS) was 2 mg/L (≈ 1.23 µM), the MIC ([2]; VRE 4 (57 FR), absence of FBS) was 2 mg/L (≈ 1.23 µM) and the MIC ([2]; VRE5 (58 FR), absence of FBS) was 2 mg/L (≈ 1.23 µM). For the same molecule, the MIC ([2]; VRE 6 (59 FR), absence of FBS) was 2 mg/L (≈ 1.23 µM), the MIC ([2]; VRE 7 (270 G), absence of FBS) was 1 mg/L (≈ 0.617 µM) and the MIC ([2]; VRE 8 (277 G), absence of FBS) was 0.5 mg/L (≈ 0.309 µM). For the same molecule, the MIC ([2]; VRE 9 (61 FR), absence of FBS) was 1 mg/L (≈ 0.617 µM), the MIC ([2]; VRE 10 (62 FR), absence of FBS) was 2 mg/L (≈ 1.23 µM) and the MIC ([2]; VRE 11 (284 G), absence of FBS) was 0.5 mg/L (≈ 0.309 µM). It also gave an MIC ([2]; VRE 12 (290 G), absence of FBS) of 1 mg/L (≈ 0.617 µM), an MIC ([2]; VRE 13 (251 G), absence of FBS) of 0.5 mg/L (≈ 0.309 µM) and an MIC ([2]; VRE 14 (252 G), absence of FBS) of 1 mg/L (≈ 0.617 µM). It also gave an MIC ([2]; VRE 15 (63 FR), absence of FBS) of 1 mg/L (≈ 0.617 µM), an MIC ([2]; VRE 16 (60 FR), absence of FBS) of 2 mg/L (≈ 1.23 µM) and an MIC ([2]; VRE 17 (45 FR), absence of FBS) of 2 mg/L (≈ 1.23 µM). For the same molecule, the MIC ([2]; VRE 18 (69 W), absence of FBS) was 1 mg/L (≈ 0.617 µM), the MIC ([2]; VRE 19 (70 W), absence of FBS) was 0.5 mg/L (≈ 0.309 µM) and the MIC ([2]; VRE 20 (78 W), absence of FBS) was 2 mg/L (≈ 1.23 µM). The MIC range [2, 21] was 0.5 to 2 mg/L.
